{"source": "patent US8802597B2", "about": "“Herbicidal pyrimidines” (E I du Pont de Nemours and Company, priority 2003, dated 2014)", "assay_in_all_cases": "Test C pre/postemergence", "type_in_all_cases": "in vivo", "key": {"[1]": {"test_system": "morningglory (Ipomoea coccinea)", "details": "Postemergence", "in_short": "(§1)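 Greenhouse herbicide screen, visual readout. Compound in solvent/surfactant applied preemergence at planting or postemergence to 1- to 4-leaf plants; assessed at 12–14 days on a 0–100 control scale.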"}, "[2]": {"test_system": "Surinam grass (Brachiaria decumbens)", "details": "Postemergence", "in_short": "as §1"}, "[3]": {"test_system": "bermudagrass (Cynodon dactylon)", "details": "Postemergence; for Bermudagrass plant response rating: scale 0 to 100 (0 no effect, 100 complete control)", "in_short": "as §1"}, "[4]": {"test_system": "pigweed (Amaranthus retroflexus)", "details": "Postemergence", "in_short": "as §1"}, "[5]": {"test_system": "common ragweed (Ambrosia elatior)", "details": "Postemergence", "in_short": "as §1"}, "corn (Zea mays)": {"test_system": "corn (Zea mays)", "details": "Postemergence", "in_short": "as §1"}, "[6]": {"test_system": "cocklebur (Xanthium strumarium)", "details": "Postemergence", "in_short": "as §1"}, "kochia (Kochia scoparia)": {"test_system": "kochia (Kochia scoparia)", "details": "Postemergence", "in_short": "as §1"}, "[7]": {"test_system": "johnsongrass (Sorghum halepense)", "details": "Postemergence", "in_short": "as §1"}, "[8]": {"test_system": "woolly cupgrass (Eriochloa villosa)", "details": "Postemergence", "in_short": "as §1"}, "[9]": {"details": "125 g ai/ha, scale 0 to 100 (0 no effect, 100 complete control)"}}}
{"smiles": "CCOC(=O)c1nc(-c2ccc(I)cc2)nc(N)c1Cl", "note": "[Compound 133]", "values": [{"measurement": "Plant response rating (scale of 0 to 100), Morningglory", "setting": "[1]; 16 g ai/ha", "value": 80}, {"measurement": "Plant response rating (scale of 0 to 100), Morningglory", "setting": "[1]; 31 g ai/ha", "value": 90}, {"measurement": "Plant response rating (scale of 0 to 100), Morningglory", "setting": "[1]; 62 g ai/ha", "value": 100}, {"measurement": "Morningglory plant response rating", "setting": "[1]; [9]", "value": 100}, {"measurement": "Plant response rating (scale of 0 to 100), Surinam Grass", "setting": "[2]; 16 g ai/ha", "value": 35}, {"measurement": "Plant response rating (scale of 0 to 100), Surinam Grass", "setting": "[2]; 31 g ai/ha", "value": 45}, {"measurement": "Plant response rating (scale of 0 to 100), Surinam Grass", "setting": "[2]; 62 g ai/ha", "value": 55}, {"measurement": "Surinam Grass plant response rating", "setting": "[2]; [9]", "value": 70}, {"measurement": "Plant response rating (scale of 0 to 100), Bermudagrass", "setting": "[3]; 16 g ai/ha", "value": 50}, {"measurement": "Plant response rating (scale of 0 to 100), Bermudagrass", "setting": "[3]; 31 g ai/ha", "value": 85}, {"measurement": "Bermudagrass plant response rating", "setting": "[3]; 62 g ai/ha", "value": 85}, {"measurement": "Bermudagrass plant response rating", "setting": "[3]; 125 g ai/ha", "value": 85}, {"measurement": "Plant response rating (scale of 0 to 100), Pigweed", "setting": "[4]; 16 g ai/ha", "value": 85}, {"measurement": "Plant response rating (scale of 0 to 100), Pigweed", "setting": "[4]; 31 g ai/ha", "value": 85}, {"measurement": "Plant response rating (scale of 0 to 100), Pigweed", "setting": "[4]; 62 g ai/ha", "value": 95}, {"measurement": "Pigweed plant response rating", "setting": "[4]; [9]", "value": 100}, {"measurement": "Plant response rating (scale of 0 to 100), Ragweed", "setting": "[5]; 16 g ai/ha", "value": 80}, {"measurement": "Plant response rating (scale of 0 to 100), Ragweed", "setting": "[5]; 31 g ai/ha", "value": 80}, {"measurement": "Plant response rating (scale of 0 to 100), Ragweed", "setting": "[5]; 62 g ai/ha", "value": 85}, {"measurement": "Ragweed plant response rating", "setting": "[5]; [9]", "value": 95}, {"measurement": "Plant response rating (scale of 0 to 100), Corn", "setting": "corn (Zea mays); 16 g ai/ha", "value": 35}, {"measurement": "Plant response rating (scale of 0 to 100), Corn", "setting": "corn (Zea mays); 31 g ai/ha", "value": 40}, {"measurement": "Plant response rating (scale of 0 to 100), Corn", "setting": "corn (Zea mays); 62 g ai/ha", "value": 60}, {"measurement": "Corn plant response rating", "setting": "corn (Zea mays); [9]", "value": 80}, {"measurement": "Plant response rating (scale of 0 to 100), Cocklebur", "setting": "[6]; 16 g ai/ha", "value": 75}, {"measurement": "Plant response rating (scale of 0 to 100), Cocklebur", "setting": "[6]; 31 g ai/ha", "value": 85}, {"measurement": "Plant response rating (scale of 0 to 100), Cocklebur", "setting": "[6]; 62 g ai/ha", "value": 95}, {"measurement": "Cocklebur plant response rating", "setting": "[6]; [9]", "value": 95}, {"measurement": "Plant response rating (scale of 0 to 100), Kochia", "setting": "kochia (Kochia scoparia); 16 g ai/ha", "value": 75}, {"measurement": "Plant response rating (scale of 0 to 100), Kochia", "setting": "kochia (Kochia scoparia); 31 g ai/ha", "value": 80}, {"measurement": "Plant response rating (scale of 0 to 100), Kochia", "setting": "kochia (Kochia scoparia); 62 g ai/ha", "value": 85}, {"measurement": "Kochia plant response rating", "setting": "kochia (Kochia scoparia); [9]", "value": 85}, {"measurement": "Plant response rating (scale of 0 to 100), Johnsongrass", "setting": "[7]; 16 g ai/ha", "value": 70}, {"measurement": "Plant response rating (scale of 0 to 100), Johnsongrass", "setting": "[7]; 31 g ai/ha", "value": 85}, {"measurement": "Plant response rating (scale of 0 to 100), Johnsongrass", "setting": "[7]; 62 g ai/ha", "value": 90}, {"measurement": "Johnsongrass plant response rating", "setting": "[7]; [9]", "value": 95}, {"measurement": "Plant response rating (scale of 0 to 100), Cupgrass, Woolly", "setting": "[8]; 16 g ai/ha", "value": 35}, {"measurement": "Plant response rating (scale of 0 to 100), Cupgrass, Woolly", "setting": "[8]; 31 g ai/ha", "value": 50}, {"measurement": "Plant response rating (scale of 0 to 100), Cupgrass, Woolly", "setting": "[8]; 62 g ai/ha", "value": 60}, {"measurement": "Cupgrass, Woolly plant response rating", "setting": "[8]; [9]", "value": 70}]}
